Literature values, collected in patent US20020038007A1, “Method of finding agonist and antagonist to human 11cb splice variant” (priority 1996, published 2002).

Experiments:
[1] = intracerebroventricular injection; Presse, F et al Neuroscience 1996
[2] = injection into lateral ventricles of rats

In the case of “H-Asp-Phe-Asp-Met-Leu-Arg-Cys-Met-Leu-Gly-Arg-Val-Tyr-Arg-Pro-Cys-Trp-Gln-Val-OH (H-DFDMLRCMLGRVYRPCWQV-OH; cysteine pairing not given here) [MCH]”, the feeding [1] is listed as “inhibit feeding” and the food consumption [2] is listed as “increased food consumption”.
